The values below come from patent publication US10294246B2, “Substituted boronic acids and boronate esters as immunoproteasome inhibitors” (MERCK PATENT GMBH, priority 2014, dated 2019).

As a reminder, the IC50 is the point on the concentration scale where inhibition reaches its midpoint. Low readings indicate higher potency, high ones lower potency.

The structures appear in SMILES notation.

Test [1] deals with human immunoproteasome (LMP7) (Homo sapiens (Human), UniProt P28062). As to the kind of experiment: Determination of LMP7 activity (fluorescence intensity assay, Suc-LLVY-AMC). Type of test: biochemical. As to conditions: for Selectivity LMP7 vs Beta5: LMP7 versus Beta5; for IC50: purified human immunoproteasome 0.25 nM, Suc-LLVY-AMC 40 μM. The procedure:
Determination of LMP7 Activity:
Measurement of LMP7 inhibition is performed in 384 well format based on fluorescence intensity assay.
Purified human immunoproteasome (0.25 nM) and serial diluted compounds in DMSO (range of concentrations from 30 μM to […]) or controls are incubated for 20 minutes at 25° C. in assay buffer containing 50 mM Tris pH 7.4, 0.03% SDS, 1 mM EDTA and 1% DMSO. The reaction is initiated by the addition of the fluorogenic peptide substrate, Suc-LLVY-AMC (Bachem 1-1395), at a concentration of 40 μM. After 60 minutes of incubation at 37° C., fluorescence intensity is measured at λex=350 nm and λem=450 nm with a fluorescence reader (Perkin Elmer Envision reader or equivalent).

Test [2] deals with human constitutive proteasome (Beta5) (Homo sapiens (Human), UniProt P28074). As to the kind of experiment: Determination of Beta5 activity (fluorescence intensity assay, Suc-LLVY-AMC). Type of test: biochemical. As to conditions: purified human constitutive proteasome 1.25 nM, Suc-LLVY-AMC 40 μM. The procedure: Determination of Beta5 Activity:
Measurement of Beta5 inhibition is performed in 384 well format based on fluorescence intensity assay.
Purified human constitutive proteasome (1.25 nM) and serial diluted compounds in DMSO (range of concentrations from 30 μM to […]) or controls are incubated for 20 minutes at 25° C. in assay buffer containing 50 mM Tris pH 7.4, 0.03% SDS, 1 mM EDTA and 1% DMSO. The reaction is initiated by the addition of the fluorogenic peptide substrate, Suc-LLVY-AMC (Bachem 1-1395), at a concentration of 40 μM. After 60 minutes of incubation at 37° C., fluorescence intensity is measured at λex=350 nm and λem=450 nm with a fluorescence reader (Perkin Elmer Envision reader or equivalent).

`O=C(Cc1ccccc1C(F)(F)F)N[C@@H](Cc1coc2ccccc12)B(O)O` [Compound No. 24, [(1R)-2-(benzofuran-3-yl)-1-[[2-[2-(trifluoromethyl)phenyl]acetyl]-amino]ethyl]boronic acid]: in test [1], the “Selectivity LMP7 vs Beta5” value is reported as “+++++ (Selectivity ≥ 100)” and the half-inhibitory concentration (IC50) was less than 50 nM. The compound further gave an IC50 in test [2] of 500 to 5000 nM.
`O=C(Cc1c(Cl)cccc1Cl)N[C@@H](Cc1coc2ccccc12)B(O)O` [Compound No. 25, [(1R)-2-(benzofuran-3-yl)-1-[[2-(2,6-dichlorophenyl)acetyl]amino]-ethyl]boronic acid]: in test [1], the “Selectivity LMP7 vs Beta5” value is “++++ (70 ≤ Selectivity < 100)” and the IC50 is less than 50 nM. The compound also yielded an IC50 in test [2] of 500 to 5000 nM.
As to `CC(=O)Nc1ccc(CC(=O)N[C@@H](Cc2coc3ccccc23)B(O)O)cc1` [Compound No. 26, [(1R)-1-[[2-(4-acetamidophenyl)acetyl]amino]-2-(benzofuran-3-yl)ethyl]boronic acid], in test [1], the “Selectivity LMP7 vs Beta5” value is given as “+++++ (Selectivity ≥ 100)”. In test [2], this compound gave a half-maximal inhibitory concentration (IC50) of 50 to 500 nM.
For the compound `COc1ccccc1CC(=O)N[C@@H](Cc1coc2ccccc12)B(O)O` [Compound No. 27, [(1R)-2-(benzofuran-3-yl)-1-[[2-(2-methoxyphenyl)acetyl]amino]ethyl]-boronic acid], the “Selectivity LMP7 vs Beta5” value in test [1] is “++++ (70 ≤ Selectivity < 100)”. Also, the IC50 in test [1] was less than 50 nM; in test [2] it was 50 to 500 nM.
On the same counts, the results for `O=C(Cc1ccccc1OC(F)(F)F)N[C@@H](Cc1coc2ccccc12)B(O)O` [Compound No. 28, [(1R)-2-(benzofuran-3-yl)-1-[[2-[2-(trifluoromethoxy)phenyl]acetyl]-amino]ethyl]boronic acid] are “+++++ (Selectivity ≥ 100)”, less than 50 nM and 500 to 5000 nM.
For `Cc1ccc(C[C@H](NC(=O)Cc2ccccc2)B(O)O)c(C)c1` [Compound No. 29, [(1R)-2-(2,4-dimethylphenyl)-1-[(2-phenylacetyl)amino]ethyl]boronic acid], the “Selectivity LMP7 vs Beta5” value in test [1] was “+++++ (Selectivity ≥ 100)”. Also, the 50% inhibitory concentration (IC50) in test [1] was 50 to 500 nM; in test [2], greater than 5000 nM.
With `COCc1ccc(CC(=O)N[C@@H](Cc2coc3ccccc23)B(O)O)cc1` [Compound No. 30, [(1R)-2-(benzofuran-3-yl)-1-[[2-[4-(methoxymethyl)phenyl]acetyl]-amino]ethyl]boronic acid], in test [1], the “Selectivity LMP7 vs Beta5” value was “++++ (70 ≤ Selectivity < 100)” and the half-inhibitory concentration (IC50) was less than 50 nM. In addition, in test [2], the concentration for half-maximal inhibition (IC50) lay in the range of 50 to 500 nM.
The corresponding values for `O=C(Cc1cccc(OCCCO)c1)N[C@@H](Cc1coc2ccccc12)B(O)O` [Compound No. 31, [(1R)-2-(benzofuran-3-yl)-1-[[2-[3-(3-hydroxypropoxy)phenyl]acetyl]-amino]ethyl]boronic acid] are “++++ (70 ≤ Selectivity < 100)”, less than 50 nM and 50 to 500 nM.
Take `CC(=O)Nc1cccc(CC(=O)N[C@@H](Cc2coc3ccccc23)B(O)O)c1` [Compound No. 32, [(1R)-1-[[2-(3-acetamidophenyl)acetyl]amino]-2-(benzofuran-3-yl)ethyl]boronic acid]: the “Selectivity LMP7 vs Beta5” value in test [1] is listed as “++++ (70 ≤ Selectivity < 100)”. The 50% inhibitory concentration (IC50) in test [2] was in the range of 50 to 500 nM.
Turning to `CO[C@H](C(=O)N[C@@H](Cc1coc2ccccc12)B(O)O)c1ccccc1` [Compound No. 33, [(1R)-2-(benzofuran-3-yl)-1-[[(2S)-2-methoxy-2-phenyl-acetyl]amino]-ethyl]boronic acid], the “Selectivity LMP7 vs Beta5” value in test [1] is listed as “+++++ (Selectivity ≥ 100)”. The 50% inhibitory concentration (IC50) in test [2] lay within 500 to 5000 nM.
Consider `CO[C@@H](C(=O)N[C@@H](Cc1coc2ccccc12)B(O)O)c1ccccc1` [Compound No. 34, [(1R)-2-(benzofuran-3-yl)-1-[[(2R)-2-methoxy-2-phenyl-acetyl]amino]-ethyl]boronic acid], for which, in test [1], the “Selectivity LMP7 vs Beta5” value is “+++++ (Selectivity ≥ 100)” and the half-inhibitory concentration (IC50) was less than 50 nM. The compound further returned an IC50 in test [2] of 500 to 5000 nM.
For `Cc1ccc(C[C@H](NC(=O)Cc2c(C)cccc2C)B(O)O)c(C)c1` [Compound No. 35, [(1R)-2-(2,4-dimethylphenyl)-1-[[2-(2,6-dimethylphenyl)acetyl]amino]-ethyl]boronic acid], the “Selectivity LMP7 vs Beta5” value in test [1] is “++ (10 ≤ Selectivity < 50)”. In addition, the half-maximal inhibitory concentration (IC50) was 50 to 500 nM in test [1] and 500 to 5000 nM in test [2].
Turning to `Cc1ccc(C[C@H](NC(=O)C2(c3ccccc3)CC2)B(O)O)c(C)c1` [Compound No. 36, [(1R)-2-(2,4-dimethylphenyl)-1-[(1-phenylcyclopropanecarbonyl)-amino]ethyl]boronic acid], in test [1], the “Selectivity LMP7 vs Beta5” value is reported as “+ (Selectivity < 10)” and the IC50 lay in the range of 500 to 5000 nM. Also, in test [2], the IC50 is greater than 5000 nM.
With `C[C@H](C(=O)N[C@@H](Cc1coc2ccccc12)B(O)O)c1ccccc1` [Compound No. 37, [(1R)-2-(benzofuran-3-yl)-1-[[(2S)-2-phenylpropanoyl]amino]ethyl]-boronic acid], in test [1], the “Selectivity LMP7 vs Beta5” value is reported as “+++++ (Selectivity ≥ 100)”. This compound also had a concentration for half-maximal inhibition (IC50) in test [2] of 500 to 5000 nM.
On to `CC(=O)Nc1ccc(CC(=O)N[C@@H](Cc2ccc(C)cc2C)B(O)O)cc1` [Compound No. 38], for which, in test [1], the “Selectivity LMP7 vs Beta5” value is “++++ (70 ≤ Selectivity < 100)” and the IC50 was less than 50 nM. The IC50 in test [2] lay in the range of 500 to 5000 nM.
The corresponding values for `O=C(Cc1ccc(OCCO)cc1)N[C@@H](Cc1coc2ccccc12)B(O)O` [Compound No. 39, [(1R)-2-(benzofuran-3-yl)-1-[[2-[4-(2-hydroxyethoxy)phenyl]acetyl]-amino]ethyl]boronic acid] are “+++++ (Selectivity ≥ 100)”, less than 50 nM and 50 to 500 nM.
On the same counts, the results for `O=C(Cc1ccc(OCCCO)cc1)N[C@@H](Cc1coc2ccccc12)B(O)O` [Compound No. 40, [(1R)-2-(benzofuran-3-yl)-1-[[2-[4-(3-hydroxypropoxy)phenyl]acetyl]-amino]ethyl]boronic acid] are “+++++ (Selectivity ≥ 100)”, less than 50 nM and 50 to 500 nM.
On the same counts, the results for `O=C(Cc1cccc(OCCO)c1)N[C@@H](Cc1coc2ccccc12)B(O)O` [Compound No. 41, [(1R)-2-(benzofuran-3-yl)-1-[[2-[3-(2-hydroxyethoxy)phenyl]acetyl]-amino]ethyl]boronic acid] are “+++++ (Selectivity ≥ 100)”, less than 50 nM and 50 to 500 nM.
`COc1cccc(OC)c1CC(=O)N[C@@H](Cc1ccc(C)cc1C)B(O)O` [Compound No. 42, [(1R)-1-[[2-(2,6-dimethoxyphenyl)acetyl]amino]-2-(2,4-dimethylphenyl)ethyl]boronic acid]: in test [1], the “Selectivity LMP7 vs Beta5” value is on record as “++ (10 ≤ Selectivity < 50)” and the half-maximal inhibitory concentration (IC50) is 50 to 500 nM. The compound further had a 50% inhibitory concentration (IC50) in test [2] greater than 5000 nM.
The corresponding values for `Cc1ccc(C[C@H](NC(=O)Cc2ccc(N3CCCC3=O)cc2)B(O)O)c(C)c1` [Compound No. 43, [(1R)-2-(2,4-dimethylphenyl)-1-[[2-[4-(2-oxopyrrolidin-1-yl)phenyl]-acetyl]amino]ethyl]boronic acid] are “+++++ (Selectivity ≥ 100)”, less than 50 nM and 500 to 5000 nM.
On the same counts, the results for `Cc1ccc(C[C@H](NC(=O)Cc2ccc(N(C)C)cc2)B(O)O)c(C)c1` [Compound No. 44, [(1R)-1-[[2-(4-dimethylaminophenyl)acetyl]amino]-2-(2,4-dimethylphenyl)ethyl]boronic acid] are “+++++ (Selectivity ≥ 100)”, less than 50 nM and greater than 5000 nM.
`C[C@@H](C(=O)N[C@@H](Cc1coc2ccccc12)B(O)O)c1ccccc1` [Compound No. 45, [(1R)-2-(benzofuran-3-yl)-1-[[(2R)-2-phenylpropanoyl]amino]ethyl]-boronic acid]: in test [1], the “Selectivity LMP7 vs Beta5” value was “+++ (50 ≤ Selectivity < 70)” and the IC50 was less than 50 nM. This compound gave an IC50 in test [2] of 500 to 5000 nM.
On the same counts, the results for `Cc1ccc(C[C@H](NC(=O)Cc2ccc(NS(C)(=O)=O)cc2)B(O)O)c(C)c1` [Compound No. 46, [(1R)-2-(2,4-dimethylphenyl)-1-[[2-[4-(methanesulfonamido)phenyl]-acetyl]amino]ethyl]boronic acid] are “++++ (70 ≤ Selectivity < 100)”, 50 to 500 nM and greater than 5000 nM.
The corresponding values for `COCC(=O)Nc1ccc(CC(=O)N[C@@H](Cc2ccc(C)cc2C)B(O)O)cc1` [Compound No. 47, [(1R)-2-(2,4-dimethylphenyl)-1-[[2-[4-[(2-methoxyacetyl)amino]-phenyl]acetyl]amino]ethyl]boronic acid] are “+++++ (Selectivity ≥ 100)”, 50 to 500 nM and greater than 5000 nM.
